Laboratory results reported in ChEMBL document CHEMBL1649074, “Aurora kinase inhibitors based on the imidazo[1,2-a]pyrazine core: fluorine and deuterium incorporation improve oral absorption and exposure” (J Med Chem, 2011).

Experiments:
Aurora kinase B [1] = target: T1, Aurora kinase B (Homo sapiens, UniProt Q96GD4); assay: Inhibition of Aurora B in human HCT116 cells assessed as inhibition of histone H3 phosphorylation by immunofluorescence assay; format: cell-based, HCT-116
[2] = AUC (0 to 6 hrs) in rat at 10 mg/kg, po; format: ADME, organism-based; parameters: time < 6 hr, dose 10 mg/kg, route oral; conditions: plasma
Aurora kinase A = target: T2, Aurora kinase A (Homo sapiens, UniProt O14965); assay: Inhibition of Aurora A
T2 sequence (O14965 whole entry): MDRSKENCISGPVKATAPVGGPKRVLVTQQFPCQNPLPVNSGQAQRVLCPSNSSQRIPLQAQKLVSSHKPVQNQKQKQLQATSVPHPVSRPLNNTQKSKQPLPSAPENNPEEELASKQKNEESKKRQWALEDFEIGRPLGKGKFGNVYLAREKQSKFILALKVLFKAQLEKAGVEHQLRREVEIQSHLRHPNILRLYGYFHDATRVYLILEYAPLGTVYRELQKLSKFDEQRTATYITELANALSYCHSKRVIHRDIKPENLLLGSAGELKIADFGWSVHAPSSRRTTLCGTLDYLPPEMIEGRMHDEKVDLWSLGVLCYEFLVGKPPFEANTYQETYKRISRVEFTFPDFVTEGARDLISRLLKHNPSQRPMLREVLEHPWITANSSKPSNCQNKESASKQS

Aurora kinase B [3] = target: T1, Aurora kinase B; assay: Inhibition of Aurora B
[4] = Plasma clearance in rat; format: ADME, organism-based
[5] = Oral AUC in Sprague-Dawley rat at 30 mg/kg, po; format: ADME, organism-based; parameters: dose 30 mg/kg, route oral; conditions: in vivo
[6] = Oral AUC in Beagle dog at 10 mg/kg, po; format: ADME, organism-based, Canis lupus familiaris; parameters: dose 10 mg/kg, route oral; conditions: in vivo
[7] = Oral bioavailability in Sprague-Dawley rat at 30 mg/kg; format: ADME, organism-based; conditions: in vivo
[8] = Oral AUC in cynomolgus monkey at 10 mg/kg, po; format: ADME, organism-based, Macaca fascicularis; parameters: dose 10 mg/kg, route oral; conditions: in vivo
[9] = AUC in CD1 mouse at 50 mg/kg, po; format: ADME, organism-based; parameters: dose 50 mg/kg, route oral; conditions: plasma
[10] = Oral bioavailability in cynomolgus monkey at 10 mg/kg; format: ADME, organism-based, Macaca fascicularis; conditions: in vivo
[11] = Oral bioavailability in CD1 mouse at 50 mg/kg; format: ADME, organism-based; conditions: in vivo
[12] = Oral bioavailability in Beagle dog at 10 mg/kg; format: ADME, organism-based, Canis lupus familiaris; conditions: beagle, in vivo

T1 sequence (Q96GD4 whole entry): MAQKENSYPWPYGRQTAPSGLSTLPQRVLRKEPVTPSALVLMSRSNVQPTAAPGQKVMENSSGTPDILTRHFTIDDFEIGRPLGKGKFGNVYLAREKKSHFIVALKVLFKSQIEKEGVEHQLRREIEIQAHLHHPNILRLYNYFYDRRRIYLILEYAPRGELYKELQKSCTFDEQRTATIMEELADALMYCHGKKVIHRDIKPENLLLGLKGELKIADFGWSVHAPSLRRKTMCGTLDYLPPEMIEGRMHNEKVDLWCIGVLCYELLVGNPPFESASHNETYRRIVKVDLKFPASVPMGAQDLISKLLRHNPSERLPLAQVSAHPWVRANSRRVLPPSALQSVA

| IC50 (Aurora kinase B [1]) | AUC(0-t) at 6 h [2] | IC50 (Aurora kinase A) | IC50 (Aurora kinase B [3]) | clearance [4] | AUC [5] | AUC [6] | bioavailability [7] | AUC [8] | AUC [9] | bioavailability [10] | bioavailability [11] | bioavailability [12] | SMILES |
| --- | --- | --- | --- | --- | --- | --- | --- | --- | --- | --- | --- | --- | --- |
| 45 nM | 0.21 µM·h | ≤ 4 nM | ≤ 13 nM | 80 mL/min/kg | – | – | – | – | – | – | – | – | Cc1cn2c(-c3cn[nH]c3)cnc2c(Nc2cc(CN3CCCCC3)ns2)n1.Cl |
| 50 nM | 0.11 µM·h | ≤ 4 nM | ≤ 13 nM | – | – | – | – | – | – | – | – | – | Cc1cn2c(-c3cn[nH]c3)cnc2c(Nc2cc(CN3CC(F)(F)C(F)(F)C3)ns2)n1.Cl |
| – | – | – | – | 35 mL/min/kg | – | – | – | – | – | – | – | – | Cl.[2H]C([2H])(c1cc(Nc2nc(C)cn3c(-c4cn[nH]c4)cnc23)sn1)N1CCCCC1 |
| 198 nM | 0.86 µM·h | ≤ 4 nM | ≤ 13 nM | – | – | – | – | – | – | – | – | – | Cc1cn2c(-c3cn[nH]c3)cnc2c(Nc2cc(CN(CC(F)(F)F)C(C)(C)CO)ns2)n1.Cl |
| 63 nM | 10.9 µM·h | ≤ 4 nM | ≤ 13 nM | 12 mL/min/kg | 20.5 µM·h | 0.3 µM·h | 22% | 0.03 µM·h | 11.1 µM·h | – | – | – | Cc1cn2c(-c3cn[nH]c3)cnc2c(Nc2cc(CNCCC(F)(F)F)ns2)n1.Cl |
| 88 nM | – | ≤ 4 nM | ≤ 13 nM | – | – | – | – | – | – | – | – | – | Cc1cn2c(-c3cn[nH]c3)cnc2c(Nc2cc(CN3CCCC3)ns2)n1 |
| 193 nM | 1.21 µM·h | ≤ 4 nM | ≤ 13 nM | – | – | – | – | – | – | – | – | – | Cc1cn2c(-c3cn[nH]c3)cnc2c(Nc2cc(CN3CCCC(F)C3)ns2)n1.Cl (stereo not given) |
| 218 nM | 1.34 µM·h | ≤ 4 nM | ≤ 13 nM | – | – | – | – | – | – | – | – | – | Cc1cn2c(-c3cn[nH]c3)cnc2c(Nc2cc(CN3CCC(C(F)(F)F)CC3)ns2)n1.Cl |
| 79 nM | 1.56 µM·h | ≤ 4 nM | ≤ 13 nM | – | – | – | – | – | – | – | – | – | Cc1cn2c(-c3cn[nH]c3)cnc2c(Nc2cc(CN3CCCC(F)(F)C3)ns2)n1.Cl |
| 82 nM | 0.74 µM·h | ≤ 4 nM | ≤ 13 nM | – | – | – | – | – | – | – | – | – | Cc1cn2c(-c3cn[nH]c3)cnc2c(Nc2cc(CN3CC[C@@H](F)C3)ns2)n1.Cl |
| 93 nM | 0.76 µM·h | ≤ 4 nM | ≤ 13 nM | – | – | – | – | – | – | – | – | – | Cc1cn2c(-c3cn[nH]c3)cnc2c(Nc2cc(CN3CC[C@H](F)C3)ns2)n1.Cl |
| 191 nM | 0.18 µM·h | ≤ 4 nM | ≤ 13 nM | – | – | – | – | – | – | – | – | – | Cc1cn2c(-c3cn[nH]c3)cnc2c(Nc2cc(CN3CC(F)C3)ns2)n1.O=C(O)C(F)(F)F |
| 51 nM | 3.42 µM·h | ≤ 4 nM | ≤ 13 nM | – | – | – | – | – | – | – | – | – | Cc1cn2c(-c3cn[nH]c3)cnc2c(Nc2cc(CNCC(F)(F)C(F)(F)F)ns2)n1.Cl |
| 74 nM | 0.95 µM·h | ≤ 4 nM | ≤ 13 nM | – | – | – | – | – | – | – | – | – | Cc1cn2c(-c3cn[nH]c3)cnc2c(Nc2cc(CN3CCC(F)(F)CC3)ns2)n1.Cl |
| 76 nM | 12.1 µM·h | ≤ 4 nM | ≤ 13 nM | – | 7.1 µM·h | 3.8 µM·h | 12% | 0.1 µM·h | 7.1 µM·h | – | – | – | Cc1cn2c(-c3cn[nH]c3)cnc2c(Nc2cc(CN3CC(F)(F)C3)ns2)n1.O=C(O)C(F)(F)F |
| – | – | – | – | 5.1 mL/min/kg | – | – | – | – | – | – | – | – | Cl.[2H]C([2H])(NCCC(F)(F)F)c1cc(Nc2nc(C)cn3c(-c4cn[nH]c4)cnc23)sn1 |
| 86 nM | 2.2 µM·h | ≤ 4 nM | ≤ 13 nM | – | 8 µM·h | 6.1 µM·h | 21% | 0.4 µM·h | 1.2 µM·h | 3% | 10% | 38% | Cc1cn2c(-c3cn[nH]c3)cnc2c(Nc2cc(CN3CCC(F)CC3)ns2)n1.Cl |

| SMILES | IC50 (Aurora kinase B [1]) | AUC(0-t) at 6 h [2] | IC50 (Aurora kinase A) | IC50 (Aurora kinase B [3]) | clearance [4] | AUC [5] | AUC [6] | bioavailability [7] | AUC [8] | AUC [9] | bioavailability [10] | bioavailability [11] | bioavailability [12] |
| --- | --- | --- | --- | --- | --- | --- | --- | --- | --- | --- | --- | --- | --- |
| Cc1cn2c(-c3cn[nH]c3)cnc2c(Nc2cc(CN(CC(F)F)C(C)(C)CO)ns2)n1.Cl | 306 nM | 0.28 µM·h | ≤ 4 nM | ≤ 13 nM | – | – | – | – | – | – | – | – | – |
